According to the NIST ThermoML archive (doi:10.1016/j.jct.2019.04.017):

Assay: xn = mol fraction of the nth substance listed
Conditions: 96 kPa, Liquid; for electrical conductivity: Frequency=0.001 MHz, Alternating current cell with electrodes; for viscosity: Cone and plate viscometry

C1CCC2=NCCCN2CC1 [1,8-diaza-7-bicyclo[5.4.0]undecene] + OCC(O)CO
Conditions | electrical conductivity, 308.1 K [S/m] | electrical conductivity, 313.1 K [S/m] | electrical conductivity, 318.1 K [S/m] | electrical conductivity, 323.1 K [S/m] | electrical conductivity, 328.1 K [S/m] | viscosity, 318.1 K [mPa·s] | viscosity, 328.1 K [mPa·s]
x1 = 0.0501 | – | – | – | – | – | 294.1 | 152.2
x1 = 0.0502 | – | 0.0666 | 0.0795 | 0.0955 | 0.11 | – | –
x1 = 0.0909 | – | – | – | – | – | 345.9 | 175
x1 = 0.0914 | – | 0.0785 | 0.0971 | 0.118 | 0.132 | – | –
x1 = 0.1 | – | – | 0.0947 | – | 0.132 | 343 | 177.4
x1 = 0.1115 | 0.0567 | 0.0761 | 0.0924 | 0.107 | 0.129 | – | –
x1 = 0.1266 | 0.0543 | 0.0699 | 0.0877 | 0.101 | 0.126 | – | –
x1 = 0.1667 | – | – | – | – | – | 359.5 | 182.5
x1 = 0.1672 | 0.0468 | 0.0613 | 0.0735 | 0.0882 | 0.103 | – | –
x1 = 0.2 | 0.0398 | 0.0497 | 0.0601 | 0.071 | 0.0859 | 370.7 | 184.3
x1 = 0.2153 | – | – | – | – | – | 376.5 | 186.8
x1 = 0.2306 | – | – | – | – | – | 355.8 | 177.8
x1 = 0.2504 | 0.0263 | 0.0335 | 0.041 | 0.0491 | 0.0585 | – | –
x1 = 0.287 | 0.0194 | 0.0245 | 0.0303 | 0.0358 | 0.0432 | – | –
x1 = 0.3059 | – | – | – | – | – | 341.7 | 159.5
x1 = 0.3333 | – | – | – | – | – | 316.5 | 155
x1 = 0.3338 | 0.0137 | 0.0158 | 0.0192 | 0.0233 | 0.0271 | – | –
x1 = 0.4003 | 0.00571 | 0.00702 | 0.00895 | 0.0107 | 0.0131 | – | –
x1 = 0.4011 | – | – | – | – | – | 279.6 | 138.5
x1 = 0.5 | 0.00128 | 0.00169 | 0.00221 | 0.00279 | 0.00347 | 223.8 | 105.4
x1 = 0.5632 | – | – | – | – | – | 169.8 | 83.62
x1 = 0.5656 | 0.000502 | 0.000644 | 0.000939 | 0.00113 | 0.0015 | – | –
x1 = 0.625 | – | – | – | – | – | 109 | 57.48
x1 = 0.6255 | 0.000251 | 0.00034 | 0.000466 | 0.000604 | 0.0008 | – | –
x1 = 0.75 | 0.000346 | – | 0.000559 | – | 0.000826 | 43.75 | 26.15
x1 = 0.753 | 0.000346 | 0.000447 | 0.000559 | 0.000667 | 0.000826 | – | –
x1 = 0.8333 | 0.000614 | – | 0.00087 | – | 0.00115 | 20.71 | 13.46
x1 = 0.8334 | 0.000614 | 0.00076 | 0.00087 | 0.00102 | 0.00115 | – | –
x1 = 0.9094 | 0.000788 | 0.000915 | 0.00101 | 0.00111 | 0.0012 | – | –
x1 = 0.95 | 0.000791 | 0.000857 | 0.000949 | 0.00104 | 0.00112 | – | –
x1 = 0.975 | 0.000668 | 0.000719 | 0.000789 | 0.000841 | 0.000928 | – | –
x1 = 1 | 0.00032 | 0.000356 | 0.000382 | 0.000423 | 0.000444 | 6.08 | 4.91
